Data as given in PubChem BioAssay (NCI).
Several values for one entry are separate records, joined by “and”; a condition that tells them apart may be missing. Equal entries are not always repeated.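 Tested at 5 concentrations; 48 h exposure; 96-well plates; endpoints linearly interpolated, else capped at highest concentration. GI50 is the concentration that inhibits growth by half. TGI marks complete inhibition of growth.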

Tests used:
Experiment in all cases: NCI anticancer screen, dose series, 48 h
786-0 renal = system: 786-0 renal
ACHN renal = system: ACHN renal
HCC-2998 colon = system: HCC-2998 colon
HT29 colon = system: HT29 colon
MCF7 breast = system: MCF7 breast
NCI-H226 lung = system: NCI-H226 lung
NCI-H460 lung = system: NCI-H460 lung
RPMI-8226 leukemia = system: RPMI-8226 leukemia
SW-620 colon = system: SW-620 colon
U251 CNS = system: U251 CNS

Structure (SMILES)	GI50 (786-0 renal)	TGI (786-0 renal)	GI50 (ACHN renal)	TGI (ACHN renal)	GI50 (HCC-2998 colon)	TGI (HCC-2998 colon)	GI50 (HT29 colon)	TGI (HT29 colon)	GI50 (MCF7 breast)	TGI (MCF7 breast)	GI50 (NCI-H226 lung)	TGI (NCI-H226 lung)	GI50 (NCI-H460 lung)	TGI (NCI-H460 lung)	GI50 (RPMI-8226 leukemia)	TGI (RPMI-8226 leukemia)	GI50 (SW-620 colon)	TGI (SW-620 colon)	GI50 (U251 CNS)	TGI (U251 CNS)
NC(=O)Nc1cc(-c2cccc(F)c2)sc1C(=O)N[C@H]1CCCNC1	0.0717 µM and 0.166 µM	1.35 µM and 0.634 µM	0.0512 µM and 0.0952 µM	> 4.73 µM and 2.75 µM	0.117 µM and 0.273 µM	1.4 µM and 2.64 µM	0.25 µM and 0.282 µM	> 10 µM and 1.37 µM	0.0285 µM and 0.144 µM	> 10 µM and 13.6 µM	1.09 µM and 0.57 µM	8.69 µM and 2.9 µM	0.207 µM and 0.467 µM	3.32 µM and 4.22 µM	0.66 µM and 0.482 µM	> 8.22 µM and 6.11 µM	0.284 µM and 0.423 µM	> 5.03 µM and 3.36 µM	0.354 µM and 0.526 µM	> 4.59 µM and 2.53 µM
CN(C)c1ccc(C(=NO)c2ccc(N(C)C)cc2)cc1	7.49 µM	> 100 µM	8.43 µM	> 100 µM	8.06 µM	> 100 µM	3.6 µM	> 100 µM	1.71 µM	> 100 µM	9.43 µM	> 100 µM	3.23 µM	> 100 µM	2.04 µM	7.94 µM	0.729 µM	> 100 µM	2.68 µM	> 100 µM
CC(=O)[O][Sn]([CH2]c1ccccc1)([CH2]c1ccccc1)[CH2]c1ccccc1	> 7.05 µM	> 10 µM	> 10 µM	> 10 µM	> 6.73 µM	> 10 µM	4.72 µM	> 8.87 µM	> 10 µM	> 10 µM	> 10 µM	> 10 µM	> 10 µM	> 10 µM	3.65 µM	> 4.64 µM	> 8.82 µM	> 10 µM	> 10 µM	> 10 µM
Cc1cnc(CNC(=O)c2c(=O)c3ccc(N4CCCN(C)CC4)nc3n3c2sc2ccccc23)cn1	6.17 µM	22.7 µM	0.305 µM	14.9 µM	2.72 µM	21.3 µM	1.43 µM	19 µM	0.804 µM	16.4 µM	7.44 µM	30.8 µM	0.162 µM	2.14 µM	1.54 µM	6.1 µM	0.237 µM	3.9 µM	3 µM	7.37 µM
O=[N+]([O-])c1ccc(N=Nc2ccc(O)c3ccccc23)cc1	8.59 µM	> 100 µM	3.13 µM	> 100 µM	10.3 µM	> 100 µM	13.7 µM	> 100 µM	2.42 µM	> 100 µM	26.3 µM	> 100 µM	3.49 µM	27.1 µM	1.59 µM	6.55 µM	3.33 µM	> 100 µM	3.12 µM	25.8 µM
O=C1C(c2cnc3ccccc3n2)=C(O)c2ccccc21		> 100 µM		> 100 µM		> 100 µM		> 100 µM		> 100 µM		> 100 µM		> 100 µM		> 100 µM		> 56.2 µM		> 100 µM
Cc1ccc(-c2nc3nc(-c4ccccc4)nc(N4CCNCC4)c3o2)cc1	0.585 µM	1.27 µM	0.495 µM	1.07 µM	1.4 µM	2.86 µM	0.242 µM	0.567 µM	0.401 µM	1.73 µM	1.79 µM	3.79 µM	0.226 µM	0.503 µM	0.232 µM	0.571 µM	0.23 µM	0.54 µM	0.181 µM	0.338 µM
COc1ccc(C2=CC(c3ccc(OC)cc3Br)N3C=CSC3=N2)cc1 (stereo not given)	13.1 µM	28.7 µM	2.39 µM	5.88 µM	5.38 µM	17.8 µM	2.09 µM	4.87 µM	1.51 µM	11.2 µM	14.7 µM	37.8 µM	11.9 µM	34.6 µM	1.86 µM	7.29 µM	2 µM	4.79 µM	3.23 µM	14 µM
COC(=N)c1c(N)[n+]([O-])c2ccc(F)cc2[n+]1[O-]	> 100 µM	> 100 µM	> 100 µM	> 100 µM	> 100 µM	> 100 µM	> 100 µM	> 100 µM	76.4 µM	> 100 µM	> 100 µM	> 100 µM	58.1 µM	> 100 µM	81.2 µM	> 100 µM	> 100 µM	> 100 µM	> 100 µM	> 100 µM
